Assay results reported in US11447486B2, “2-amino-benzimidazole derivatives and their use as 5-lipoxygenase and/or prostaglandin E synthase inhibitors” (INSTITUT PASTEUR KOREA, priority 2014, dated 2022).

How the values were obtained:
Rat whole blood (RWB) = test: LTB4 secretion assay in RWB (rat whole blood); format: cell-based; settings: Rattus norvegicus
Outline: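 Heparinized blood from male Sprague Dawley rats (6-9 weeks) diluted 1:1 in RPMI, pre-incubated 15 min at 37 °C with compound (2.5 nM to 50 uM). Stimulated with 10 uM calcium ionophore A23187 for 10 min at 37 °C, stopped with ice-cold PBS; LTB4 in supernatant quantified by EIA.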

[1] = test system: Rat basophilic leukemia (RBL) cells; test: LTB4 secretion assay in RBL (rat basophilic leukemia cells); format: cell-based; settings: Rattus norvegicus, RBL
Outline: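 Cells seeded 2×10^4/well the day before, then pre-incubated 15 min at 37 °C in EMEM/0.5% FBS with compound (5 nM to 100 uM). Stimulation with 2.5 uM arachidonic acid plus 5 uM A23187 (final) for 10 min at 37 °C; LTB4 in supernatant quantified by EIA.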

human 5-LOX = target: T1, human 5-LOX (Homo sapiens, UniProt P09917); test: 5-LOX enzyme activity, fluorescence method (5-HPETE, H2DCFDA); format: biochemical; settings: read-out: 5-LO (IC50)
T1 construct: purchased Cayman 60402; host or cells: insect cells (lysate)
T1 sequence (P09917 1-674): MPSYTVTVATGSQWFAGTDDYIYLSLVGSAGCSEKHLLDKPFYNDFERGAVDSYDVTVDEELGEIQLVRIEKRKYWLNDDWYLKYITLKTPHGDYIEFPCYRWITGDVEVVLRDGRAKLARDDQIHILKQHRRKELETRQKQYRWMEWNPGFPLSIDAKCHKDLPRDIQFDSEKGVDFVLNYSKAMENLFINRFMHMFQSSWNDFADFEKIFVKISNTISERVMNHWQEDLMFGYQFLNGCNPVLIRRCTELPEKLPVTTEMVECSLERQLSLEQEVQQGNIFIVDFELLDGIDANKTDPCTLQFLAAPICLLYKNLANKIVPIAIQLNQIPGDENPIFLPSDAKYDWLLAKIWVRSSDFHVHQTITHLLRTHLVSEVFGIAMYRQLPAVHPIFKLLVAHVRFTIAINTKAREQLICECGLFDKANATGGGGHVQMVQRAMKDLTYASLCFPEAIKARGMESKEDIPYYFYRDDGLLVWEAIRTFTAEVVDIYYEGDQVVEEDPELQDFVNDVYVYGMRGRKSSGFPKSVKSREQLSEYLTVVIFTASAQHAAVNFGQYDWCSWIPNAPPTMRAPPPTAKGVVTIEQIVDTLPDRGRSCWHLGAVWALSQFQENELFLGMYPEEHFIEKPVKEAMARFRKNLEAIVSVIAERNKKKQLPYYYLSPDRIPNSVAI
Outline: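 Compound (0.5 nM to 10 uM) pre-incubated 5 min with enzyme; reaction started with ATP (100 uM final) and arachidonic acid (3 uM final). All steps at room temperature, fluorescence read-out.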

Structure (SMILES)	EC50 (Rat whole blood (RWB)) [µM]	EC50 [1] [µM]	IC50 (human 5-LOX) [µM]
Cn1c(NCc2ccc(C(=O)Nc3ccc(Cl)cn3)cc2)nc2ccc(NC3COC3)cc21 [Compound 303]	> 20	> 20	< 1
Cn1nc(Nc2ccc3nc(NCc4ccc(Oc5ncc(Cl)cn5)cc4)n(C)c3c2)cc1C(F)F [Compound 532]	< 10	< 10	< 1
Clc1ccc(Oc2ccc(CNc3nc4cc(NCc5ccccn5)ccc4[nH]3)cc2)cc1 [Compound 149]	< 10	< 10	< 1
Cn1c(NCc2ccc(Oc3ccc(C(F)(F)F)cn3)cc2F)nc2ccc(NC3COC3)cc21 [Compound 546]	< 10	< 10	< 1
Clc1ccc(Oc2ccc(CNc3nc4cc(NC5COC5)ccc4[nH]3)cc2)cc1 [Compound 125]	< 10	< 10	< 1
CCC(Nc1nc2ccc(Nc3cc(C(F)(F)F)n(C)n3)cc2n1C)c1ccc(Oc2ncc(C(F)(F)F)cn2)cc1F (stereo not drawn) [Compound 528]	< 10	< 10	> 10
Nc1ccc2nc(N)n(Cc3ccc(Oc4ccc(OC(F)(F)F)cc4)cc3)c2c1 [Compound 245]	10 to 20	< 10	> 10
Nc1ccc2nc(NC3CCCC3)n(Cc3ccc(Oc4ccc(Cl)cc4)cc3)c2c1 [Compound 161]	10 to 20	< 10	< 1
Nc1nc2ccc(NC3COC3)cc2n1Cc1ccc(Oc2ccc(Cl)cn2)cc1 [Compound 234]	< 10	< 10	< 1
Cn1c(NCc2ccc(Oc3ncc(Cl)cn3)cc2)nc2ccc(Nc3nc(C(F)(F)F)cs3)cc21 [Compound 494]	< 10	< 10	1 to 10
Cn1nc(Nc2ccc3nc(NCc4ccc(Oc5ncc(C(F)(F)F)cn5)cc4)n(C)c3c2)cc1C(F)(F)F [Compound 519]	< 10	< 10	> 10
Cn1c(NCc2ccc(Oc3ccc(Cl)cn3)cc2)nc2ccc(NC(C)(C)C(N)=O)cc21 [Compound 306]	< 10	< 10	< 1
Clc1ccc(Oc2ccc(CNc3nc4cc(Nc5cn[nH]c5)ccc4[nH]3)cc2)cc1 [Compound 24]	< 10	< 10	< 1
Cn1c(NCc2ccc(Oc3ncc(C#N)cn3)cc2)nc2ccc(NC3COC3)cc21 [Compound 368]	< 10	< 10	< 1
Cn1c(NCc2ccc(Oc3ncc(Cl)cn3)cc2)nc2ccc(NC3COC3)cc21 [Compound 289]	< 10	< 10	< 1
Cn1nc(Nc2ccc3nc(NCc4ccc(Oc5ncc(Cl)cn5)cc4)n(C)c3c2)cc1C(F)(F)F [Compound 468]	< 10	< 10	< 1
Cn1c(NCc2ccc(Oc3nc4ccc(N)cc4n3C)cc2)nc2ccc(NC3COC3)cc21 [Compound 409]	> 20	> 20	< 1
Cn1c(NCc2ccc(Oc3ccc(Cl)cn3)cc2Cl)nc2ccc(NC3COC3)cc21 [Compound 294]	> 20	< 10	< 1
CCn1c(NCc2ccc(Oc3ncc(Cl)cn3)cc2)nc2c(F)cc(NC3COC3)cc21 [Compound 555]	10 to 20	10 to 20	< 1
CC(CC(F)(F)F)Oc1ccc(CNc2nc3ccc(N)cc3[nH]2)cc1 (stereo not drawn) [Compound 172]	10 to 20	< 10	< 1
Nc1ccc2nc(NCc3ccc(OCCC(F)(F)F)cc3)[nH]c2c1 [Compound 176]	< 10	< 10	< 1

Structure (SMILES)	EC50 (Rat whole blood (RWB)) [µM]	EC50 [1] [µM]	IC50 (human 5-LOX) [µM]
CNc1nc2ccc(N)cc2n1Cc1ccc(Oc2ccc(Cl)cn2)cc1 [Compound 229]	< 10	< 10	< 1
Nc1ccc2[nH]c(NCc3ccc(Oc4ccc(Cl)cc4Cl)cc3)nc2c1 [Compound 135]	10 to 20	< 10	< 1
CCC(Nc1ccc2[nH]c(N(C)C)nc2c1)c1ccc(Oc2ccc(OC(F)(F)F)cc2)cc1 (stereo not drawn) [Compound 132]	> 20	< 10	< 1
Clc1ccc(Oc2ccc(CNc3nc4cc(NC5COC5)ccc4[nH]3)cc2)nc1 [Compound 166]	< 10	< 10	< 1
Nc1ccc2nc(NCCOc3ccc(OC(F)(F)F)cc3)[nH]c2c1 [Compound 62]	< 10	< 10	< 1
CN(C)c1nc2ccc(NCc3ccc(-c4ccc(Cl)cn4)cc3)cc2[nH]1 [Compound 197]	> 20	< 10	< 1
Cn1nc(Nc2cc(F)c3nc(NCc4ccc(Oc5ncc(Cl)cn5)cc4)n(C)c3c2)cc1C(F)(F)F [Compound 524]	10 to 20	< 10	> 10
CC(Nc1nc2cc(N)ccc2[nH]1)c1ccc(Oc2ccc(Cl)cc2)cc1 (stereo not drawn) [Compound 110]	< 10	< 10	< 1
Nc1ccc2[nH]c(NCc3ccc(Oc4ccc(F)cc4)cc3)nc2c1 [Compound 94]	< 10	< 10	< 1
CN(C)c1nc2cc(NCc3ccc(Oc4ccc(OC(F)(F)F)cc4)cc3)ccc2[nH]1 [Compound 126]	> 20	< 10	< 1
Cn1c(NCc2ccc(Oc3ncc(Cl)cn3)cc2F)nc2ccc(NC3COC3)cc21 [Compound 381]	< 10	> 20	< 1
Cc1cccnc1Nc1ccc2nc(NCc3ccc(Oc4ncc(Cl)cn4)cc3)n(C)c2c1 [Compound 464]	< 10	< 10	1 to 10
CCC(Nc1nc2ccc(Nc3cc(C4CC4)[nH]n3)cc2n1C)c1ccc(Oc2ncc(Cl)cn2)cc1 (stereo not drawn) [Compound 530]	< 10	< 10	< 1
Nc1ccc2[nH]c(NCc3ccc(Oc4ccc(OC(F)(F)F)cc4)cc3)nc2c1 [Compound 88]	< 10	< 10	< 1
Nc1nc2ccc(Nc3n[nH]cc3C(=O)NC3CC3)cc2n1CCOc1ccc(OC(F)(F)F)cc1 [Compound 17]	> 20	< 10	1 to 10
CN(C)c1nc2ccc(NCc3ccc(C4(C#N)CCOCC4)cc3)cc2[nH]1 [Compound 241]	> 20	< 10	< 1
Cc1cc(Nc2cnc3nc(NCc4ccc(Oc5ncc(Cl)cn5)cc4)n(C)c3c2)n[nH]1 [Compound 497]	> 20	> 20	1 to 10
CC(C)(C)Nc1nc2ccc(N)cc2n1CCOc1ccc(OC(F)(F)F)cc1 [Compound 65]	< 10	< 10	< 1
Cn1c(NCc2cc(Cl)c(Oc3ncc(Cl)cn3)cc2Cl)nc2ccc(NC3COC3)cc21 [Compound 433]	< 10	10 to 20	< 1
Cn1c(NCc2ccc(Oc3ncc(F)cn3)cc2)nc2ccc(N)cc21 [Compound 336]	< 10	10 to 20	< 1
Cn1c(NCc2ccc(Oc3ncc(C#N)cn3)cc2)nc2ccc(N)cc21 [Compound 367]	< 10	< 10	< 1
